Test results taken from patent publication US9895730B2, “Method for extraction and surfactant enhanced subsurface contaminant recovery” (priority 2007, dated 2018).
Read-outs that look alike come from different tables or passages of the source.

Key:
[1] = cited from earlier work
[2] = Chlorinated DNAPL dissolution experiments with Citrus Burst-3; type: physicochemical; conditions: water, thermodynamic from solid, in presence of chlorinated DNAPL, without cosolvent-surfactant, 25° C., read-out: Observed Solubility in Control Sample
Source text: In order to test the treatment of chlorinated compounds, a chlorinated solvent DNAPL was obtained from a site consisting of chlorinated solvents and chlorinated semi-volatile compounds. Composition of the chlorinated solvent DNAPL is presented based on determinations using USEPA Methods 8260 and 8270.
Carbon tetrachloride and tetrachloroethylene comprised more than 87 percent of the DNAPL. Being a saturated compound, carbon tetrachloride is generally a pervasive and difficult to degrade compound once introduced to the subsurface.

[3] = cited from earlier work; remark: listed apart in the source

Row | SMILES | Pure Compound Aqueous Solubility [1] | log Kow ([3]; Table 5) | log Kow ([3]; Table 2) | other results
1 | Clc1c(Cl)c(Cl)c2c(Cl)c(Cl)c(Cl)c(Cl)c2c1Cl [Octachloronaphthalene (OCN), Octachloronaphthalene] | insoluble |  |  | 
2 | ClC(Cl)(Cl)Cl [Carbon Tetrachloride (CTC), Carbon Tetrachloride] | 129 µg/mL | 2.83 |  | solubility at 48 h [2]: 100 µg/mL
3 | Cc1ccc(C)c(C)c1 [1,2,4-Trimethybenzene] |  |  | 3.7 | 
4 | ClC(Cl)=C(Cl)C(Cl)=C(Cl)Cl [Hexachlorobutadiene (HCBD), Hexachlorobutadiene] |  | 4.90 |  | 
5 | Cc1ccc2ccccc2c1 [2-Methylnaphthalene] |  |  | 3.9 | 
6 | CCc1ccccc1 [Ethylbenzene] |  |  | 3.1 | 
